Target: T1, epoxysqualene cyclase (Rattus norvegicus, UniProt P48450)
T1 construct: Rat hepatic microsomes were used as the source of the enzyme; from tissue; host or cells: liver microsomes of male Wistar rats
T1 sequence (P48450 1-733): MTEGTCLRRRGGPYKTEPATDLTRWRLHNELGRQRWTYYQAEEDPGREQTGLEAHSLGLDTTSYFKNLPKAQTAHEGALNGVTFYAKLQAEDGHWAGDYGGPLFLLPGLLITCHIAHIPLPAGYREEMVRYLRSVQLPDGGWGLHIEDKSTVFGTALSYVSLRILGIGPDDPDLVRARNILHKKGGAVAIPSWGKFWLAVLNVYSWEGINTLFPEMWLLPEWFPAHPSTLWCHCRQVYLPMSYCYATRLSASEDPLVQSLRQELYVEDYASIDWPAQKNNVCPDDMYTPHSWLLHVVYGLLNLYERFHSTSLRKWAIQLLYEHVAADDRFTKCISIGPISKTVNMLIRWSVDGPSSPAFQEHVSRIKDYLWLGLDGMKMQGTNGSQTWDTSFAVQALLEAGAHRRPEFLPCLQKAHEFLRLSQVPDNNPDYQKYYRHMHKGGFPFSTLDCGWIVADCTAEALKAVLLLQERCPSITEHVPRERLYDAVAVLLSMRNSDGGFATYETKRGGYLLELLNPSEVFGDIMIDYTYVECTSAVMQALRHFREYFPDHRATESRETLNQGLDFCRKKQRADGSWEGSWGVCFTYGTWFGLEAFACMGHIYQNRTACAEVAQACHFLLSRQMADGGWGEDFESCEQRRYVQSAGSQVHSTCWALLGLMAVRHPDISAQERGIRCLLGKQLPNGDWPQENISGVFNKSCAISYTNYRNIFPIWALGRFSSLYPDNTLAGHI
Assay: inhibition of epoxysqualene cyclase in rat hepatic microsomes (lanosterol formed from (R,S)-2,3-oxydosqualene)
Type: biochemical, male Wistar rats
Conditions: 25.10^-6 moles per liter of tested product; 150 μM (R,S)-2,3-oxydosqualene, 60 minutes at 37° C., pH=7.4; read-out: Inhibition percentage (of the quantity of lanosterol formed)
Method: The activity of the Compounds of the invention was evaluated by the observation of an inhibiting effect on epoxysqualene cyclase in the hepatic microsomes of male Wistar rats.
The method consisted of measuring the lanosterol formed from R,S-2,3-oxydosqualene by the microsomal enzyme. The enzyme was prepared using the method described by G. C. Ness (G. C. Ness et. al., Biochem. J., (1986), 233, 167-172).
Method for Measuring the Activity of Epoxysqualene Cyclase
Rat hepatic microsomes were used as the source of the enzyme. The method consisted in measuring the lanosterol formed from (R,S)-2,3-oxydosqualene.The (R,S)-2,3-oxydosqualene, the products to be tested and TWEEN® 80 in organic solution (2-propanone or sulphinyl bis-methane) (25 μl) were placed in test tubes and 400 μl of potassium buffer (0.1M, pH=7.4) was added. The reaction was initiated by adding 100 μl of the microsomes. In a final reaction volume of 525 μl, the mixture contained 150 μM of (R,S)-2,3-oxydosqualene, 0.1% of TWEEN® 80 (to dissolve the (R,S)-2,3-oxydosqualene) and 250 μg of microsomal proteins. The reaction time was 60 minutes at 37° C. The reaction was stopped by addition of 300 μl of methanolic potassium hydroxide (7%) and 20 μg of stigmasterol as an internal standard. After saponification at 80° C. for 30 minutes and stirring using a rotary stirrer, the sterols were extracted with 2 ml of hexane. The lanosterol formed was separated from the (R,S)-2,3-oxydosqualene, the membranal cholesterol and the stigmasterol by gas phase chromatography after transformation to the trimethylsilyl ethers. Derivatisation of the sterols was carried out at 60° C. for 30 minutes after addition of 25 μl of pyridine and 75 μl of the trimethylsilyl ester of 2,2,2-trifluoro-N-trimethylsily-ethanimidic acid containing 1% of trimethylchlorosilane ethers.
After evaporation, the trimethylsilyl ethers were taken up into solution in 100 μl of hexane. An aliquot of this solution (2 μl) was gas chromatographed on a OV1 capillary column (0.32 mm, 25 m) under the following conditions: injection temperature=270° C., furnace temperature=260° C., detector temperature=300° C.; the vector gas was nitrogen at a pressure of 7.10^4 Pa.
The potency of the molecules tested was expressed as the percentage inhibition of the quantity of lanosterol formed for a concentration of 25.10^-6 moles per liter of product tested.

| SMILES | inhibition [%] |
| --- | --- |
| CCCCCCCCCCCCN1CCC(C(C)(C)CN)CC1 [Example 1, 1-dodecyl-β,β-dimethyl-4-piperidineethanamine] | 75 |
| CCCCCCCCCCCCN1CCC(C(C)(C)CN(C)C)CC1 [Example 2, 1-dodecyl-N,N,β,β-tetramethyl-4-piperidineethanamine] | 97 |
| CCCCCCCCCCCCN1CCC(C(C)(C)CN(CC)CC)CC1 [Example 4, 1-dodecyl-N,N-diethyl,β,β-dimethyl-4-piperidineethanamine] | 63 |
| CCCCCCCCCCCCN1CCC(C(C)(C)CNCC)CC1 [Example 9, 1-dodecyl-N-ethyl,β,β-dimethyl-4-piperidineethanamine] | 96 |
| CCCCCCCCCCCCN1CCC(C(C)(C)CN(C)C(C)=O)CC1 [Example 10, N-methyl-N-[2-methyl-2-[(1-dodecyl)-4-piperidinyl]propyl]acetamide] | 66 |
| CCCCCCCCCCCCN1CCC(C(C)(C)CNC(C)=O)CC1 [Example 11, N-[2-methyl-2-[(1-dodecyl)-4-piperidinyl]propyl]-N-acetamide] | 58 |
| C=CCN1CCC(C(C)(C)CN(C)C)CC1 [Example 13, 1-(2-propenyl)-N,N,β,β-tetramethyl-4-piperidineethanamine] | 64 |
| CC(C)=CCN1CCC(C(C)(C)CN(C)C)CC1 [Example 14, 1-(3,3-dimethylpropen-2-yl)-N,N,β,β-tetramethyl-4-piperidineethanamine] | 48 |
| CCCCCCCCCCCCN1CCC(C(C)(C)CN2CCCCC2)CC1 [Example 15, 1-[[2-[4-(1-dodecylpiperidinyl)]-2-methyl]propyl]piperidine] | 40 |
| CN(C)CC(C)(C)C1CCN(C/C=C/C#CC(C)(C)C)CC1 [Example 16, (E)-1-(6,6-dimethyl-2-hepten-4-yn-1-yl)-N,N,β,β-tetramethyl-4-piperidineethanamine] | 100 |
| CN(C)CC(C)(C)C1CCN(CCCCCC(C)(C)C)CC1 [Example 17, 1-(6,6-dimethyl-heptyl)-N,N,β,β-tetramethyl-4-piperidineethanamine] | 100 |
| CC(Cc1ccc(C(C)C)cc1)CN1CCC(C(C)(C)CN(C)C)CC1 (stereo not drawn) [Example 18, 1-[3-[4-(methylethyl)phenyl]-2-methyl-propyl]-N,N,β,β-tetramethyl-4-piperidineethanamine] | 100 |
| CCCCCCCCCCC(=O)N1CCC(C(C)(C)CN(C)C)CC1 [Example 19, 1-undecanoyl-N,N,β,β-tetramethyl-4-piperidineethanamine] | 100 |
| CN(C)CC(C)(C)C1CCN(C(=O)CCCCCCCCCCn2ccnc2)CC1 [Example 20, 1-[(11-imidazolyl)undecanoyl]-N,N,β,β-tetramethyl-4-piperidineethanamine] | 100 |
| CN(C)CC(C)(C)C1CCN(CCCCCCCCCCCn2ccnc2)CC1 [Example 21, 1-[(11-imidazolyl)undecyl]-N,N,β,β-tetramethyl-4-piperidineethanamine] | 100 |
| CC(C)CCCC(=O)NCCCN1CCC(C(C)(C)CN(C)C)CC1 [Example 24, N-[[4-[2-(1-dimethylamino-2-methyl)propyl]-1-piperidinyl]-1-propyl]-5-methylhexanamide] | 93 |
| CCOC(=O)CCCN1CCC(C(C)(C)CN(C)C)CC1 [Example 25] | 81 |
| CC(C)CCCNC(=O)CCCN1CCC(C(C)(C)CN(C)C)CC1 [Example 26, N-(4-methylpentyl)-4-[2-(1-dimethylamino-2-methyl)propyl]-1-piperidinebutanamide] | 100 |
| CCCCCCCCCCCC(=O)N1CCC(C(C)(C)C[N+](C)(C)C)CC1 [Example 27, 1-[(1-undecyl)carbonyl]-N,N,N,β,β-pentamethyl-4-piperidinethanaminium Iodide] | 100 |
| CN(C)CC(C)(C)C1CCN(C(=O)C=Cc2ccccc2)CC1 [Example 28, 1-(3-phenylpropenoyl)-N,N,β,β-tetramethyl-4-piperidineethanamine] | 87 |
| CN(C)CC(C)(C)C1CCN(C(=O)C(C)(C)Oc2ccc(Cl)cc2)CC1 [Example 29, 1-[2-(4-chlorophenoxy)-2,2-dimethyl-ethanoyl]-N,N,β,β-tetramethyl-4-piperidineethanamine] | 95 |
| CN(C)CC(C)(C)C1CCN(CC(C)(C)Oc2ccc(Cl)cc2)CC1 [Example 30, 1-[2-(4-chlorophenoxy)-2,2-dimethyl-ethyl]-N,N,β,β-tetramethyl-4-piperidineethanamine] | 92 |
| CN(C)CC(C)(C)C1CCN(CC=Cc2ccccc2)CC1 [Example 31, 1-(3-phenylpropenyl)-N,N,β,β-tetramethyl-4-piperidineethanamine] | 99 |
| CC(C)Cc1ccc(C(C)CN2CCC(C(C)(C)CN(C)C)CC2)cc1 (stereo not drawn) [Example 32, 1-[2-[4-(2-methylpropyl)phenyl]-2-methylethyl]-N,N,β,β-tetramethyl-4-piperidineethanamine] | 95 |
